Measured values reported in patent publication US11266743B2, “Peptide compositions and methods of use thereof” (priority 2017, dated 2022).
Entries after “also recorded” stand apart in the source; their conditions may differ.

Columns and labels:
Format in all cases: cell-based
[1] = system: Hela pTRE-LucIVS2-705 cells; experiment: PNA705 mediated luciferase splice correction (luminescence, RLU/μg protein)
Protocol: To assess nuclear cargo delivery and splice correction, PNA705 (SEQ ID NO: 11) was used. Luciferase production was quantified at both the protein (FIG. 6) and mRNA levels (FIG. 7). To quantify functional luciferase levels following splice correction, Hela pLuc705 cells were treated with a 2× serial dilution starting at 5 μM of CPP-PNA705 for 30 minutes in serum free DMEM at 37° C., washed in PBS, and allowed to recover for 24 hours in complete media. To assess the impact of endosomal entrapment and subsequent lysosomal degradation, some cells were co-treated with the endosomal acidification inhibitor chloroquine (120 μM) along with 5 μM CPP-PNA705. Cell lysates were assayed for luciferase by luminescence. To control for total cell density, lysates were also analyzed for total protein by the BCA assay.
Hela pTRE-LucIVS2-705 cells were seeded on flat-bottom 96-well plates at 10,000 cells per well in 200 μl complete DMEM. The following day, cells were washed in phosphate buffered saline and topped with premixed 50 μl 2× serum/phenol red free DMEM (Gibco)+50 μl peptide cleavage solution (ddH2O+peptide). Cells were transfected for 30 min at 37° C. with 5% CO2. The transfection solution was removed, cells were washed with PBS, and topped with 100 μl complete DMEM. The next day (24 hour recovery) cells were washed in PBS and lysed in 20 μl reporter lysis buffer (Promega E4030) following the manufacturers protocol. 10 μl of the lysate was removed and total protein concentration was determined using the bicinchoninic acid assay (Pierce BCA Protein Assay-ThermoFisher 23225). The 96-well plate containing the remaining 10 μl lysate was analyzed for luminescence using the Luciferase Assay System (Promega E1500) on a BioTek SYNERGY™ 2 plate reader with injector ports. Data was expressed as Relative Luminescence Units/μg Protein (RLU/μg Protein) and positive wells were defined as those whose RLU/μg Protein values exceeded the average for the plate by at least three standard deviations. […]

P. aeruginosa biofilms = experiment: Activity against P. aeruginosa biofilms; details: 25 μM
Protocol: Bacterial biofilm formation on implanted medical devices is a serious medical problem because these biofilms can lead to life-threatening systemic infections. We tested selected peptides and rationally designed variants against biofilms formed by P. aeruginosa. […] D-NOGCON reduces viable bacteria by 3.6 logs ( 1/3000 reduction) at 25 μM, while the best conventional antibiotic, Ciprofloxacin, reduced viable bacteria by only 1.7 logs ( 1/55 reduction) at 25 μM.

[2] = system: HeLa, RAW264.7, HepG2, and MCF-7 cells; experiment: TAMRA delivery assay (flow cytometry, confocal microscopy); details: 0.5 μM CPP-TA + 4.5 μM CPP-C, 30 minutes at 4° C., 22° C., or 37° C.
Protocol: To determine the effect of the PNA cargo on delivery, we labeled CPPs, lacking the PNA705 cargo, with the fluorophore TAMRA on a C-terminal cysteine residue (CPP-TA) and measured delivery to multiple cell types. TAMRA-labelled CPPs, mixed with unlabeled CPPs at a 1:10 ratio in serum-free DMEM for a final concentration of 5 μM total peptide, was added to HeLa, RAW264.7, HepG2, and MCF-7 cells in 12-well cell culture plates and incubated for 30 minutes at 4° C., 22° C., or 37° C. prior to flow cytometric analysis (FIGS. 9-16). […] Delivery of TAMRA was verified by confocal microscopy for each cell type.
Hela, RAW264.7, HCT116, HepG2, and MCF-7 cells were plated in 12-well plates at 100,000 cells/well. After 24 hours, cells were gently washed in PBS, topped with 500 μl of CPP-TA solution containing 0.5 μM CPP-TA+4.5 uM CPP-C in sfDMEM without phenol red, and incubated for 30 min at either 4° C., 23° C., or 37° C. The incubation solution was aspirated and cells were treated with 100 μl 0.025% Trypsin for 3 minutes at 23° C. 500 μl DMEM containing 2% FBS, 125 nM Sytox Green, and 20 mM HEPES was used to suspend the cells. Cells were transferred to a filter-topped flow cytometry tube and analyzed on a BD™ LSR II flow cytometer. Cells displaying a normal morphology were gated and first analyzed for GFP fluorescence using the 488 nM laser. GFP negative cells were used to generate a histogram of TAMRA fluorescence, measured with the 543 nM laser.
Cells were treated as described above for the TAMRA delivery assay and immediately imaged to avoid artifacts resulting from fixation. The distribution of TAMRA and Sytox Green was analyzed using a confocal scanning Nikon Eclipse Ti2 inverted microscope using a 40× oil-immersion objective. Sytox Green was excited using the 488 nM laser and TAMRA was excited using the 543 nM laser.

[3] = system: Hela cells stably transfected with mCherry and GFP1-10; experiment: Split GFP assay (GFP-11 delivery); details: all concentrations and temperatures studied
Protocol: To test the ability of CPPs to deliver other cargoes, specifically a protease-sensitive peptide cargo, we modified the well-known split-GFP assay. CPPs were tested for the ability to deliver the polar 16-residue GFP-11 peptide across the membrane barrier. This peptide rescues the fluorescence of the cytosolic endogenous, non-fluorescent GFP1-10 protein. Here, we stably transfected Hela cells with a plasmid containing the full length mCherry and the non-fluorescent GFP1-10. Following incubation with CPP-GFP-11 constructs at multiple concentrations and temperatures for 30 minutes in serum free DMEM, cells were analyzed by flow cytometry for mCherry and GFP fluorescence (FIG. 17). Live cells expressing mCherry (˜50% of the total cells) were gated and their GFP fluorescence was analyzed. Unlike the luciferase splice correction assay where a single corrected mRNA transcript serves as template for many molecules of functional luciferase, the split GFP assay is stoichiometric; a single GFP-11 peptide can bind to a single GFP1-10 protein producing a finite fluorescent response.
Hela cells were transfected with p_mCherry-GFP1-10 (Addgene plasmid #78591) using LIPOFECTAMINE® 3000 (ThermoFisher). Single mCherry positive cells were sorted into 96-well plates using a BD™ FACSARIA™ cell sorter and colonies were maintained under G418 selection at […]. Stably transfected cells were plated in 12-well plates at 100,000 cells/well and grown overnight in complete DMEM. Cells were washed in PBS and incubated in 500 μl of CPP-GFP-11 solution at variable concentrations at 23° C. and 37° C. for 30 minutes. The CPP-GFP-11 solution was aspirated and 100 μl of 0.025% trypsin solution was added to each well. After detachment, cells were suspended in 500 μL of PBS+2% FBS and 20 mM HEPES. Cells were analyzed using a BD™ LSRII flow cytometer. Cells displaying a normal morphology were gated and first analyzed for mCherry fluorescence using the 543 nM laser. mCherry+ cells were used to generate a histogram of GFP fluorescence measured with the 488 nM laser.

Hela pTRE-LucIVS2 cells = experiment: ALAMARBLUE toxicity assay of CPP-PNA705; details: 10 μM CPP-PNA705 conjugate, after 24 hours
Protocol: CPP-PNA705 cytotoxicity was assessed using several methods known in the art. A Lactate Dehydrogenase (LDH) assay (FIG. 5A) measured the acute cytotoxicity and detects LDH released by cells because of membrane damage resulting from exposure to the CPPs. An ALAMARBLUE® assay (FIG. 5B) and a Bicinchoninic Acid (BCA) Assay (FIG. 5C) both measure the impact of exposure after 24 hours. In the ALAMARBLUE®, assay some reduction in metabolic activity was detected in Hela705 cells treated with 20 μM CPP-PNA705 concentrations for 1 hour.
Hela pTRE-LucIVS2 cells were plated in 96-well plates at 10,000 cells/well. After 24 hours, cells were treated with CPP constructs for 1 Hr in sfDMEM at 37° C., washed in PBS, and allowed to recover for 24 hours in 100 μl complete media. 10 μl ALAMARBLUE® (ThermoFisher) was added to each well and cells were incubated fo4r 2 Hrs at 37° C. Reduction of ALAMARBLUE® was determined by fluorescence at […].

| Compound | efficiency of PNA705 delivery in cell culture (words, rank order) [1] | reduction of viable bacteria in biofilm (P. aeruginosa biofilms) | TAMRA delivery (words, rank order) [2] | GFP-11 delivery [3] | reduction in metabolic activity (Hela pTRE-LucIVS2 cells) |
| --- | --- | --- | --- | --- | --- |
| RRRRRRRRR [Arg9, reference compound] | much better than Tat |  |  |  |  |
| O=C(O)c1cn(C2CC2)c2cc(N3CCNCC3)c(F)cc2c1=O [Ciprofloxacin, reference compound] |  | 1.7 logs |  |  |  |
| RKKRWFRRRRPKWKK [CPP-1] | most efficient at PNA delivery |  | CPP-2»CPP-3=CPP-1>CPP-4>TAT=penetratin | deliver GFP-11 to more cells than Tat and penetratin; also recorded: most efficient at GFP-11 delivery | 20% |
| RRKKIWFRRLRMK [CPP-4] | successfully delivers PNA705 |  | CPP-2»CPP-3=CPP-1>CPP-4>TAT=penetratin; also recorded: does not deliver GFP-11 or TAMRA significantly | does not deliver GFP-11 or TAMRA significantly | little effect |
